In this experiment the test system is Patients with glaucoma. The experiment can be described thus: Intraocular pressure of glaucoma patients measured by applanation tonometry during eyedrop treatment. The format is in vivo, human. As to conditions: average of last six measurements. The method, then:
Patients with glaucoma which had led to glaucomatous damage were treated. All the patients had previously been treated with timolol 0.5% eyedrops, and in some cases with a combination therapy of timolol 0.5% and another antiglaucomatous agent. The initial state of the intraocular pressure was measured during the previous therapy by determining the average of the last six measurements during the previous therapy. Two groups of patients were then treated according to the invention. […] They formed the group of decompensated glaucomas. Group 2 comprised patients who had normalized intraocular pressures on treatment with timolol 0.5%. They formed the group of compensated glaucomas. […] A third group formed of 11 patients was treated in the same manner with eyedrops which contained only 0.5% lactalbumin hydrolyzate fraction from example 5. The intraocular pressure was checked initially after one day, after two days and then weekly. The measurements of intraocular pressure took place at various times of day (morning, midday, late afternoon) by applanation tonometry. In total, 18 patients with an average age of 56.6 years, of whom 8 were male and 10 patients were female, were treated for 9 weeks.

Consider one molecule from patent publication US20050043214A1, “Antiglaucomatous agent and use thereof” (priority 2001, published 2005).

Take `CC(C)(C)NC[C@H](O)COc1nsnc1N1CCOCC1` [timolol]: the “average intraocular pressure by applanation before the treatment according to the invention” value is on record as 26.4 mmHg (group 1 decompensated glaucomas, on timolol 0.5% or combination therapy with another antiglaucomatous agent, range of variation 3.6 mmHg) and 19.2 mmHg (group 2 compensated glaucomas, on timolol 0.5%, range of variation 1.6 mmHg).
